The test system of test [1] is histone acetylation (H2BK12/K15) in HEK293T cells. Put plainly: Site-specific histone acetylation in HEK293T cells by Western blot. The conditions noted are these: for Deacetylation of specific histone residues: Western blot; for IC50: Homo sapiens, HEK-293T. The class given is cell-based. As to the method: To determine whether salicylate induces histone deacetylation directly in cells, we treated HEK293T cells with various concentrations of salicylate.
Figure 2. Salicylate inhibits specific lysine acetylation of histone and nonhistone proteins independently of AMPK activation. […] HEK293T cells were treated with the indicated concentrations of sodium salicylate for 24 hr. Site-specific histone acetylation was detected by Western blot with specific antisera. Bands were quantified with Image J software. Acetylation was normalized to that of untreated cells and plotted. Representative results are shown in Supplementary Figure 1. Experiments are repeated and error bars indicate SEM. […] HEK293T cells were transfected with increasing amounts of expression vectors for p300 or F1504A or PCAF, treated with sodium salicylate for 24 hr, and analyzed by Western blotting analysis with an antiserum specific for acetyl histone H2BK12/K15. Bands were quantified with Image J software. Acetylation was normalized to that of untreated control. Average levels of relative acetylation are plotted and error bars indicate SEM. Representative results are shown in Supplementary Figure 2—figure supplement 2. (E) IC50 values generated from all curves in panel (B) and (D) were plotted against the amount of plasmid transfected (p300 or PCAF). (F), (G) HEK293 T cells were transfected with expression vectors for p300 and NF-κB p65 (F) or p53 (G), treated with salicylate for 24 hr, and analyzed by Western blot with specific antibodies against acetyl NF-κBK310 (F) or acetyl p53K382 and acetyl H2BK12/15 (G). Compound C (10 μM), a specific AMPK inhibitor, was added to salicylate-treated cells for 24 hr before Western blot (G). KR, p65 K310R mutant DOI: http://dx.doi.org/10.7554/eLife.11156.005 Figure 2—figure supplement 1. Salicylate induces histone deacetylation in HEK293T cells HEK293T cells were treated with sodium salicylate as indicated for 24 hr, immediately lysed in Laemmli buffer, and then subjected to western blot analysis with the indicated antibodies. Histones H2A, H2B, H3 and H4 were used as input loading controls. Experiments are repeated five times and representative data are shown. DOI: http://dx.doi.org/10.7554/eLife.11156.006 [drawing 2] Figure 2—figure supplement 2. Salicylate-induced deacetylation of histone H2B can be rescued by overexpression of p300, but not PCAF, in a dose-dependent manner. (A) Overexpression of p300 but not PCAF specifically leads to hyperacetylation of histone H2B. […] H2B acetylation was measured by western blot and the specified antibodies. (B) Overexpression of p300 but not PCAF rescued salicylate-induced H2B deacetylation in a dose-dependent manner. […] H2B acetylation was measured by Western Blot and the specified antibodies. […]
In general terms: A western blot detects proteins with antibodies after separation by electrophoresis.

For the next test, the system named is AML1-ETO fusion protein. Put plainly: AML1-ETO K24/K43 acetylation in Kasumi-1 cells (immunoprecipitation, Western blot). The settings on record: Kasumi-1, 24 hr; salicylate 4 or 8 mM, diflunisal 100 or 200 μM. The class given is cell-based, human. From the text:
Previously, we reported that the leukemogenicity of the AML1-ETO fusion protein, generated by a t(8;21) translocation in acute myelogenous leukemia, is regulated by p300-mediated acetylation of lysine 43 of the fusion protein ([Wang et al., 2011]).
Figure 4. […] (B) Kasumi-1 and AE9a cells treated or not with salicylate were counted by trypan-blue exclusion under light microscopy. […] The percentage of sub-G1 cells is shown. […] Cells were counted by trypan-blue exclusion under light microscopy. […] DOI: http://dx.doi.org/10.7554/eLife.11156.011
AML1-ETO protein in the lysate was immunoprecipitated with an anti-ETO antibody (Santa Cruz Biotechnology). Antibodies against AML1 and acetylated AML1-ETO K24/K43 (generated in the Nimer lab) were used for Western blotting.

Where two headings read alike, the source gives them in different places.

Consider `O=C(O)c1cc(-c2ccc(F)cc2F)ccc1O` [diflunisal], for which the “Deacetylation of specific histone residues” value in test [1] (HEK293T cells, 24 hr) was “induced deacetylation of specific histone residues, H2AK5, K9, H2BK12/K15, H3K56”. Further, the IC50 in test [1] (24 h, read-out: IC50 for H2BK12/K15 inhibition in cells) came out at 160 µM. For the same molecule, in the test on AML1-ETO fusion protein, the “K24 and K43 acetylation of AML1-ETO” value is given as “decreased in a dose-dependent manner”.

In the case of `O=C(O)c1ccccc1O` [salicylate, salicylic acid], the “Deacetylation of specific histone residues” value in test [1] (HEK293T cells, 24 hr) was “deacetylation of H2AK5/K9, H2BK12/K15, and H3K56 in a dose-dependent manner”. For the same molecule, in test [1] (HEK293T cells, 24 hr, read-out: IC50 for inhibition of H2B acetylation), the IC50 came out at 4800 µM. Further, in the test on AML1-ETO fusion protein, the “K24 and K43 acetylation of AML1-ETO” value is listed as “decreased in a dose-dependent manner”.

The values above are taken from PMC4931907 (eLife, 2016).
